Measurements reported in ChEMBL document CHEMBL5252638, “Novel triphenylphosphonium amphiphilic conjugates of glycerolipid type: synthesis, cytotoxic and antibacterial activity, and targeted cancer cell delivery” (RSC Med Chem, 2023).

Columns and labels:
Bacillus cereus [1] = test: Bactericidal activity against Bacillus cereus ATCC 10702 NCTC 8035 by serial microdilution method; format: functional
HuTu80 [2] = test: Cytotoxicity against human HuTu80 cells assessed as number of viable cells measured after 48 hrs by MTT based colorimetric assay; format: functional, cell-based; details: HuTu80, 48 h
Escherichia coli [3] = test: Antimicrobial activity against Escherichia coli ATCC 25922 by serial microdilution method; format: functional
PANC-1 = test: Cytotoxicity against human PANC-1 cells assessed as number of viable cells measured after 48 hrs by MTT based colorimetric assay; format: functional, cell-based; details: PANC-1, 48 h
Homo sapiens [4] = organism: Homo sapiens; test: Selectivity index, ratio of IC50 for human Chang liver cells to IC50 for human DU-145 cells
MCF7 = test: Cytotoxicity against human MCF7 cells assessed as number of viable cells measured after 48 hrs by MTT based colorimetric assay; format: functional, cell-based; details: MCF7, 48 h
Homo sapiens [5] = organism: Homo sapiens; test: Selectivity index, ratio of IC50 for human Chang liver cells to IC50 for human SK-OV-3 cells
[6] = Cytotoxicity against human Chang liver cells assessed as number of viable cells measured after 48 hrs by MTT based colorimetric assay; format: toxicity, cell-based
Staphylococcus aureus [7] = test: Bactericidal against Staphylococcus aureus ATCC 6538 P FDA 209P by serial microdilution method; format: functional
Homo sapiens [8] = organism: Homo sapiens; test: Selectivity index, ratio of IC50 for human Chang liver cells to IC50 for human PC-3 cells
DU-145 = test: Cytotoxicity against human DU-145 cells assessed as number of viable cells measured after 48 hrs by MTT based colorimetric assay; format: functional, cell-based; details: DU-145, 48 h
SK-OV-3 = test: Cytotoxicity against human SK-OV-3 cells assessed as number of viable cells measured after 48 hrs by MTT based colorimetric assay; format: functional, cell-based; details: SK-OV-3, 48 h
Escherichia coli [9] = test: Bactericidal activity against Escherichia coli ATCC 25922 by serial microdilution method; format: functional
Homo sapiens [10] = organism: Homo sapiens; test: Selectivity index, ratio of IC50 for human Chang liver cells to IC50 for human HuTu80 cells
Enterococcus faecalis [11] = test: Antimicrobial activity against Enterococcus faecalis ATCC 29212 by serial microdilution method; format: functional
Homo sapiens [12] = organism: Homo sapiens; test: Selectivity index, ratio of IC50 for human Chang liver cells to IC50 for human MCF7 cells
HepG2 = test: Cytotoxicity against human HepG2 cells assessed as number of viable cells measured after 48 hrs by MTT based colorimetric assay; format: functional, cell-based; details: HepG2, 48 h
A549 = test: Cytotoxicity against human A549 cells assessed as number of viable cells measured after 48 hrs by MTT based colorimetric assay; format: functional, cell-based; details: A549, 48 h
Staphylococcus aureus [13] = test: Antimicrobial activity against Staphylococcus aureus ATCC 6538 P FDA 209P by serial microdilution method; format: functional
Enterococcus faecalis [14] = test: Bactericidal activity against Enterococcus faecalis ATCC 29212 by serial microdilution method; format: functional
PC-3 = test: Cytotoxicity against human PC-3 cells assessed as number of viable cells measured after 48 hrs by MTT based colorimetric assay; format: functional, cell-based; details: PC-3, 48 h
Bacillus cereus [15] = test: Antimicrobial activity against Bacillus cereus ATCC 10702 NCTC 8035 by serial microdilution method; format: functional
M-HeLa = test: Cytotoxicity against human HelaM cells assessed as number of viable cells measured after 48 hrs by MTT based colorimetric assay; format: functional, cell-based
[16] = Cytotoxicity against human WI-38 cells assessed as number of viable cells measured after 48 hrs by MTT based colorimetric assay; format: toxicity, cell-based
T98G = test: Cytotoxicity against human T98G cells assessed as number of viable cells measured after 48 hrs by MTT based colorimetric assay; format: functional, cell-based
HuTu80 [17] = test: Induction of apoptosis in human HuTu80 cells assessed as viable cells at 5 uM incubated for 48 hrs by annexin V FITC/propidium iodide staining based flow cytometry analysis (reference value: 93.71%); format: functional; details: read-out: Activity
HuTu80 [18] = test: Induction of cell cycle arrest in human HuTu80 cells assessed as accumulation of cell at G1/G0 phase at 10 uM measured after 48 hrs by propidium iodide staining based analysis (reference value: 72%); format: functional
HuTu80 [19] = test: Induction of ROS production in human HuTu80 cells assessed as increase in fluorescence intensity at 10 uM measured after 48 hrs by flow cytometry based analysis (reference value: 380); format: functional
HuTu80 [20] = test: Induction of cell cycle arrest in human HuTu80 cells assessed as accumulation of cell at S phase at 10 uM measured after 48 hrs by propidium iodide staining based analysis (reference value: 8.1%); format: functional
HuTu80 [21] = test: Induction of apoptosis in human HuTu80 cells assessed as late apoptotic cells at 10 uM incubated for 48 hrs by annexin V FITC/propidium iodide staining based flow cytometry analysis (reference value: 0.00%); format: functional
HuTu80 [22] = test: Induction of mitochondrial membrane potential loss in human HuTu80 cells assessed as J-monomer green fluorescence intensity at 5 uM incubated for 24 hrs by JC10 staining based flow cytometry method (reference value: 5.7%); format: functional
Homo sapiens [23] = organism: Homo sapiens; test: Selectivity index, ratio of IC50 for human Chang liver cells to IC50 for human HelaM cells
HuTu80 [24] = test: Induction of mitochondrial membrane potential loss in human HuTu80 cells assessed as J-aggregates red fluorescence intensity at 5 uM incubated for 24 hrs by JC10 staining based flow cytometry method (reference value: 94.4%); format: functional
HuTu80 [25] = test: Induction of mitochondrial membrane potential loss in human HuTu80 cells assessed as J-aggregates red fluorescence intensity at 10 uM incubated for 24 hrs by JC10 staining based flow cytometry method (reference value: 94.4%); format: functional
HuTu80 [26] = test: Induction of apoptosis in human HuTu80 cells assessed as viable cells at 10 uM incubated for 48 hrs by annexin V FITC/propidium iodide staining based flow cytometry analysis (reference value: 93.71%); format: functional; details: read-out: Activity
HuTu80 [27] = test: Induction of cell cycle arrest in human HuTu80 cells assessed as accumulation of cell at G1/G0 phase at 5 uM measured after 48 hrs by propidium iodide staining based analysis (reference value: 72%); format: functional
HuTu80 [28] = test: Induction of apoptosis in human HuTu80 cells assessed as late apoptotic cells at 5 uM incubated for 48 hrs by annexin V FITC/propidium iodide staining based flow cytometry analysis (reference value: 0.00%); format: functional
HuTu80 [29] = test: Induction of ROS production in human HuTu80 cells assessed as increase in fluorescence intensity at 5 uM measured after 48 hrs by flow cytometry based analysis (reference value: 380); format: functional
HuTu80 [30] = test: Induction of apoptosis in human HuTu80 cells assessed as early apoptotic cells at 10 uM incubated for 48 hrs by annexin V FITC/propidium iodide staining based flow cytometry analysis (reference value: 1.74%); format: functional
HuTu80 [31] = test: Induction of cell cycle arrest in human HuTu80 cells assessed as accumulation of cell at S phase at 5 uM measured after 48 hrs by propidium iodide staining based analysis (reference value: 8.1%); format: functional
HuTu80 [32] = test: Induction of apoptosis in human HuTu80 cells assessed as necrotic cells at 10 uM incubated for 48 hrs by annexin V FITC/propidium iodide staining based flow cytometry analysis (reference value: 4.56%); format: functional
HuTu80 [33] = test: Induction of apoptosis in human HuTu80 cells assessed as early apoptotic cells at 5 uM incubated for 48 hrs by annexin V FITC/propidium iodide staining based flow cytometry analysis (reference value: 1.74%); format: functional
HuTu80 [34] = test: Induction of mitochondrial membrane potential loss in human HuTu80 cells assessed as J-monomer green fluorescence intensity at 10 uM incubated for 24 hrs by JC10 staining based flow cytometry method (reference value: 5.7%); format: functional
HuTu80 [35] = test: Induction of apoptosis in human HuTu80 cells assessed as necrotic cells at 5 uM incubated for 48 hrs by annexin V FITC/propidium iodide staining based flow cytometry analysis (reference value: 4.56%); format: functional
HuTu80 [36] = test: Induction of cell cycle arrest in human HuTu80 cells assessed as accumulation of cell at G2/M phase at 5 uM measured after 48 hrs by propidium iodide staining based analysis (reference value: 18.7%); format: functional
HuTu80 [37] = test: Induction of cell cycle arrest in human HuTu80 cells assessed as accumulation of cell at G2/M phase at 10 uM measured after 48 hrs by propidium iodide staining based analysis (reference value: 18.7%); format: functional

CCCCC/C=C\C/C=C\CCCCCCCC(=O)OCC(COC(=O)CCCC[P+](c1ccccc1)(c1ccccc1)c1ccccc1)OC(=O)CCCC[P+](c1ccccc1)(c1ccccc1)c1ccccc1 (centres undefined)
MBC (Bacillus cereus [1]): 500 µM
IC50 (HuTu80 [2]): 9 µM
MIC (Escherichia coli [3]): 6.4 µM
IC50 (PANC-1): 46.7 µM
Ratio IC50 (Homo sapiens [4]): 1.5
IC50 (MCF7): 24.7 µM
Ratio IC50 (Homo sapiens [5]): 1.1
IC50 at 48 h [6]: 45 µM
MBC (Staphylococcus aureus [7]): 3.2 µM
Ratio IC50 (Homo sapiens [8]): 1.1
IC50 (DU-145): 29.4 µM
IC50 (SK-OV-3): 39.4 µM
MBC (Escherichia coli [9]): 12.8 µM
Ratio IC50 (Homo sapiens [10]): 5
MIC (Enterococcus faecalis [11]): 12.8 µM
Ratio IC50 (Homo sapiens [12]): 1.8
IC50 (HepG2): 64.5 µM
IC50 (A549): 70 µM
MIC (Staphylococcus aureus [13]): 3.2 µM
MBC (Enterococcus faecalis [14]): 51.2 µM
IC50 (PC-3): 40.3 µM
MIC (Bacillus cereus [15]): 6.4 µM
IC50 (M-HeLa): 53.8 µM
IC50 at 48 h [16]: 41.1 µM
IC50 (T98G): 51.7 µM

CCCCC/C=C\C/C=C\CCCCCCCC(=O)OCC(O)COC(=O)CCCC[P+](c1ccccc1)(c1ccccc1)c1ccccc1.[Br-] (centres undefined)
viability at 5 µM (HuTu80 [17]): 72.2%
Activity (HuTu80 [18]): 82%
Flu intensity (HuTu80 [19]): 1700
IC50 (HuTu80 [2]): 9.5 µM
Activity (HuTu80 [20]): 5.4%
MIC (Escherichia coli [3]): 20 µM
IC50 (PANC-1): 59 µM
Ratio IC50 (Homo sapiens [4]): 1.3
IC50 (MCF7): 37.7 µM
Ratio IC50 (Homo sapiens [5]): 1.6
IC50 at 48 h [6]: 63 µM
Activity (HuTu80 [21]): 19.59%
MBC (Staphylococcus aureus [7]): 5 µM
Activity (HuTu80 [22]): 26.1%
Ratio IC50 (Homo sapiens [23]): 1.1
Activity (HuTu80 [24]): 73.9%
Activity (HuTu80 [25]): 61.9%
IC50 (DU-145): 49.1 µM
IC50 (SK-OV-3): 39.4 µM
MBC (Escherichia coli [9]): 80 µM
Ratio IC50 (Homo sapiens [10]): 6.6
viability at 10 µM (HuTu80 [26]): 56.2%
MIC (Enterococcus faecalis [11]): 20 µM
Activity (HuTu80 [27]): 81%
Ratio IC50 (Homo sapiens [12]): 1.7
IC50 (HepG2): 76 µM
IC50 (A549): 62.5 µM
Activity (HuTu80 [28]): 13.1%
MIC (Staphylococcus aureus [13]): 5 µM
Flu intensity (HuTu80 [29]): 1000
MBC (Enterococcus faecalis [14]): 80 µM
Activity (HuTu80 [30]): 5.67%
Activity (HuTu80 [31]): 5.7%
IC50 (PC-3): 63.9 µM
MIC (Bacillus cereus [15]): 20 µM
IC50 (M-HeLa): 55.6 µM
Activity (HuTu80 [32]): 18.56%
Activity (HuTu80 [33]): 3.99%
IC50 at 48 h [16]: 56.6 µM
Activity (HuTu80 [34]): 38.1%
Activity (HuTu80 [35]): 10.7%
Activity (HuTu80 [36]): 11%
IC50 (T98G): 98 µM
Activity (HuTu80 [37]): 9.3%
